Results taken from US20260083865A1, “PROSTATE SPECIFIC MEMBRANE ANTIGEN (PSMA) LIGANDS AND USE THEREOF” (priority 2022, published 2026).
Numbered stars: 1 amine (or outer) side, 2 acyl side, 3 side chain; on linkers, the order of the positions; unused ones are H or OH. Bridge positions count the residues as written; N and C are the ends. Square brackets hold non-standard residues; d marks the D form. Peptide text beside a SMILES is read from it. * marks the point of attachment. X14 = NC(=O)[C@H](CCCCNC(=O)CCCC[C@@H]1SC[C@@H]2NC(=O)N[C@@H]21)NC(=O)CCC(=O)NCCCOCCOCCOCCCNC(=O)CCC(=O)NCCCOCCOCCOCCCN*; X3 = O=C(O)CN1CCN(CC(=O)O)CCN(CC(=O)NCCCOCCOCCOCCCN*)CCN(CC(=O)O)CC1; DOTA = O=C(O)CN1CCN(CC(=O)O)CCN(CC(=O)*)CCN(CC(=O)O)CC1; Arg(NO2) = N=C(NCCC[C@H](N)C(=O)O)N[N+](=O)[O-]; Phe(4-Cl) = N[C@@H](Cc1ccc(Cl)cc1)C(=O)O; 1Nal = N[C@@H](Cc1cccc2ccccc12)C(=O)O; Arg(Me) = CNC(=N)NCCC[C@H](N)C(=O)O; X4 = O=C(CN1CCC(N[*:1])CC1)[*:2]; 2Pal = N[C@@H](Cc1ccccn1)C(=O)O; 3Pal = N[C@@H](Cc1cccnc1)C(=O)O; X1 = O=C(CC1CCN([*:1])CC1)[*:2]; Cit = NC(=O)NCCC[C@H](N)C(=O)O; Lys(Me) = CNCCCC[C@H](N)C(=O)O; d(αMeS) = C[C@@](N)(CO)C(=O)O; Suc = O=C(CCC(=O)[*:2])[*:1]; Tle = CC(C)(C)[C@H](N)C(=O)O; Pyridin(2-yl) = c1ccc(*)nc1; Orn = NCCC[C@H](N)C(=O)O; Aib = CC(C)(N)C(=O)O; CO = O=C([*:1])[*:2]; NHBu = CCCCN*

How the values were obtained:
[1] = target: T1, Fc-fusion protein of human PSMA (hPSMA-Fc) (Homo sapiens, UniProt Q04609); test: Surface plasmon resonance assay (Biacore T200, single cycle kinetic); assay type: binding; details: SPR, hPSMA-Fc, single cycle kinetic, 25° C.; category; read-out: pKD CAT (converted)
T1 construct: purchased Acro Biosystems PSA-H5264
T1 sequence (Q04609 44-750 limits assumed): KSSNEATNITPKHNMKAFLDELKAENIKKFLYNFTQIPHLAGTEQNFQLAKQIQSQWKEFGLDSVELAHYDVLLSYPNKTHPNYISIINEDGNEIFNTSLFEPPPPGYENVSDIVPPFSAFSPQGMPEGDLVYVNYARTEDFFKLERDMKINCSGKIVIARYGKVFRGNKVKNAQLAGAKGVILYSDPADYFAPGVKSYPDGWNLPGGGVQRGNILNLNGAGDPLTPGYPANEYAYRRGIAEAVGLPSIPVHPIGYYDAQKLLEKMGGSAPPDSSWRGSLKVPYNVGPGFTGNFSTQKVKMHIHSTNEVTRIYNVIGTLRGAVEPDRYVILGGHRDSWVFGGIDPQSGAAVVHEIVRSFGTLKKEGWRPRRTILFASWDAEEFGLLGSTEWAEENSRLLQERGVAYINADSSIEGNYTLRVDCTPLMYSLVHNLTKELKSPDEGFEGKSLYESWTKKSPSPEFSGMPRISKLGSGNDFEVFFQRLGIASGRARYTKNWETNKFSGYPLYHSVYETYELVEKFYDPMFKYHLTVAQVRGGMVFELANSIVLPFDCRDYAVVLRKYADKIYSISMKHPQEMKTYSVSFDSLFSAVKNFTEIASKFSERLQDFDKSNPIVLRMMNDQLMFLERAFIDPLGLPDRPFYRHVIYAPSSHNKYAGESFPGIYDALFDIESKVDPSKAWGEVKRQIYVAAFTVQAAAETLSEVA
How it was run: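 KD, expressed as pKD, came from 1:1 Langmuir fits of reference- and buffer-blank-subtracted SPR data. The runs were single-cycle kinetics at 25° C in HBST/0.1% DMSO over human PSMA-Fc, captured to ~1000 RU on a peptide-coated CM5 surface and regenerated with 10 mM glycine pH 1.5.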

[2] = target: T2, PSMA-expressing C4-2 cells (Homo sapiens, UniProt Q04609); test: FACS binding assay (competition with 50 nM PSM-0183); details: FACS binding, C4-2 cells, competition with 50 nM PSM-0183; category; read-out: pIC50 [C4-2] CAT (converted)
T2 construct: PSMA-expressing C4-2 cells (ATCC, Cat. No. CRL-3314) were cultured in RPMI-1640; host or cells: C4-2 cells
T2 sequence (Q04609 whole entry): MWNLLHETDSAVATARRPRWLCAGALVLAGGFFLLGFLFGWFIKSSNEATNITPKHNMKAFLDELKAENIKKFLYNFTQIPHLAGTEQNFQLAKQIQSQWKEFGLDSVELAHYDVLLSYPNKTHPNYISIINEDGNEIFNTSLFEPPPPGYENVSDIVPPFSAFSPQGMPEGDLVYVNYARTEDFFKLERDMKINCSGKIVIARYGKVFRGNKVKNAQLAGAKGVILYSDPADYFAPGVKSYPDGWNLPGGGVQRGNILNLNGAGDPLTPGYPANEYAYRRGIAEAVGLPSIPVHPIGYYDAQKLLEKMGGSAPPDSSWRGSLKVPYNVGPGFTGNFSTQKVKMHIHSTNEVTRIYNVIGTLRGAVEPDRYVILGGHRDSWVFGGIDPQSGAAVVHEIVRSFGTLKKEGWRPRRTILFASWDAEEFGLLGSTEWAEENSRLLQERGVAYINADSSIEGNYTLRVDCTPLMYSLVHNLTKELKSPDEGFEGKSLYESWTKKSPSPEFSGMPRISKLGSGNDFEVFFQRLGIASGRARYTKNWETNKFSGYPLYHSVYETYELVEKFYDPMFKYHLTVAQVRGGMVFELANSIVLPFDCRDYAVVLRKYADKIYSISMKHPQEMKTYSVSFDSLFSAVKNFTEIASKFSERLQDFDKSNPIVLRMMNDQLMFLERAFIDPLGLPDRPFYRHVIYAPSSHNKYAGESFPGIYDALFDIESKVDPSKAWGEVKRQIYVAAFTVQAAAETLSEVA
How it was run: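 Competition format: fluorescent tracer PSM-0183 (50 nM) displaced from PSMA on C4-2 cells by a test compound titration over 1 h at 4 °C. Bound tracer was quantified as flow-cytometric AF488 median fluorescence after washing. Four-parameter logistic fits of MFI data gave IC50 and pIC50.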

Structure (SMILES)	Kd [1]	IC50 [2]
C[C@@H](O)[C@H](NC(=O)[C@@H](NC(=O)[C@@H]1CSSC[C@H](NC(=O)[C@H](Cc2ccc(Cl)cc2)NC(=O)C(C)(C)NC(=O)CC2CCN(C(=O)CN3CCN(CC(=O)O)CCN(CC(=O)O)CCN(CC(=O)O)CC3)CC2)C(=O)N[C@@H](CCCCN)C(=O)N[C@@H](CCCNC(=N)N)C(=O)NC(C)(C)C(=O)N[C@@H](CC(N)=O)C(=O)N1)C(C)(C)C)C(N)=O [PSM-0248, DOTA-Cmp-Aib-Pcf-[Cys-Lys-Arg-Aib-Asn-Cys]-Tle-Thr-NH2] ({DOTA}-[X1][Aib][Phe(4-Cl)]CKR[Aib]NC[Tle]T-NH2; disulfide 4-9)	12.6 to 126 nM	< 200 nM
CC(=O)N[C@H](C(=O)NC(C)(C)C(=O)N[C@@H](Cc1cccc2ccccc12)C(=O)N[C@H]1CSSC[C@@H](C(=O)N[C@H](C(=O)N[C@H](C(=O)N[C@@H](CC(=O)O)C(N)=O)[C@@H](C)O)C(C)(C)C)NC(=O)[C@H](CC(N)=O)NC(=O)C(C)(C)NC(=O)[C@H](CCCNC(=N)N)NC(=O)[C@H](CCCCN)NC1=O)[C@@H](C)O [PSM-0249, Ac-Thr-Aib-1Ni-[Cys-Lys-Arg-Aib-Asn-Cys]-Tle-Thr-Asp-NH2] (Ac-T[Aib][1Nal]CKR[Aib]NC[Tle]TD-NH2; disulfide 4-9)	< 12.6 nM	< 200 nM
C[C@@H](O)[C@H](NC(=O)CC1CCN(C(=O)CN2CCN(CC(=O)O)CCN(CC(=O)O)CCN(CC(=O)O)CC2)CC1)C(=O)NC(C)(C)C(=O)N[C@@H](Cc1ccc(Cl)cc1)C(=O)N[C@H]1CSSC[C@@H](C(=O)N[C@H](C(=O)N[C@H](C(=O)NCCCOCCOCCOCCCNC(=O)CCC(=O)NCCCOCCOCCOCCCNC(=O)CCC(=O)N[C@@H](CCCCNC(=O)CCCC[C@@H]2SC[C@@H]3NC(=O)N[C@@H]32)C(N)=O)[C@@H](C)O)C(C)(C)C)NC(=O)[C@H](CC(N)=O)NC(=O)C(C)(C)NC(=O)[C@H](CCCNC(=N)N)NC(=O)[C@H](CCCCN)NC1=O [PSM-0250, DOTA-Cmp-Thr-Aib-Pcf-[Cys-Lys-Arg-Aib-Asn-Cys]-Tle-Thr-Ttds-Ttds-Lys(Bio)-NH2] ({DOTA}-[X1]T[Aib][Phe(4-Cl)]CKR[Aib]NC[Tle]T-X14; disulfide 5-10)	< 12.6 nM	200 to 1260 nM
CC(=O)N[C@H](C(=O)NC(C)(C)C(=O)N[C@@H](Cc1ccccc1)C(=O)N[C@H]1CSSC[C@@H](C(=O)N[C@H](C(=O)N[C@H](C(=O)N2CCC(CC(=O)N[C@H](CCCCNC(=O)CN3CCN(CC(=O)O)CCN(CC(=O)O)CCN(CC(=O)O)CC3)C(N)=O)CC2)[C@@H](C)O)C(C)(C)C)NC(=O)[C@H](CC(N)=O)NC(=O)C(C)(C)NC(=O)[C@H](CCCNC(N)=O)NC(=O)[C@H](CCCCN)NC1=O)[C@@H](C)O [PSM-0252, Ac-Thr-Aib-Phe-[Cys-Lys-Cit-Aib-Asn-Cys]-Tle-Thr-Cmp-lys(DOTA)-NH2] (Ac-T[Aib]FCK[Cit][Aib]NC[Tle]T[X1][dK](DOTA)-NH2; disulfide 4-9)	> 501 nM	200 to 1260 nM
CC(=O)N[C@H](C(=O)NC(C)(C)C(=O)N[C@@H](Cc1ccccc1)C(=O)N[C@H]1CSSC[C@@H](C(=O)N[C@H](C(=O)N[C@H](C(=O)N[C@@H](CC(=O)O)C(N)=O)[C@@H](C)O)C(C)(C)C)NC(=O)[C@H](CC(N)=O)NC(=O)C(C)(C)NC(=O)[C@H](CCC(=O)O)NC(=O)[C@H](CCCCN)NC1=O)[C@@H](C)O [PSM-0253, Ac-Thr-Aib-Phe-[Cys-Lys-Glu-Aib-Asn-Cys]-Tle-Thr-Asp-NH2] (Ac-T[Aib]FCKE[Aib]NC[Tle]TD-NH2; disulfide 4-9)	126 to 501 nM	200 to 1260 nM
CNCCCC[C@@H]1NC(=O)[C@@H](NC(=O)[C@H](Cc2ccc(Cl)cc2)NC(=O)C(C)(C)NC(=O)[C@@H](NC(=O)CC2CCN(C(=O)CN3CCN(CC(=O)O)CCN(CC(=O)O)CCN(CC(=O)O)CC3)CC2)[C@@H](C)O)CSSC[C@@H](C(=O)N[C@H](C(=O)N[C@H](C(N)=O)[C@@H](C)O)C(C)(C)C)NC(=O)[C@H](CC(N)=O)NC(=O)C(C)(C)NC(=O)[C@H](CCCNC(=N)N[N+](=O)[O-])NC1=O [PSM-0254, DOTA-Cmp-Thr-Aib-Pcf-[Cys-Lys(Me)-Eew-Aib-Asn-Cys]-Tle-Thr-NH2] ({DOTA}-[X1]T[Aib][Phe(4-Cl)]C[Lys(Me)][Arg(NO2)][Aib]NC[Tle]T-NH2; disulfide 5-10)	< 12.6 nM	< 200 nM
C[C@@H](O)[C@H](NC(=O)[C@@H](NC(=O)[C@@H]1CSSC[C@H](NC(=O)[C@H](Cc2cccnc2)NC(=O)C(C)(C)NC(=O)[C@@H](NC(=O)CC2CCN(C(=O)CN3CCN(CC(=O)O)CCN(CC(=O)O)CCN(CC(=O)O)CC3)CC2)[C@@H](C)O)C(=O)N[C@@H](CCCCN)C(=O)N[C@@H](CCCNC(N)=O)C(=O)NC(C)(C)C(=O)N[C@@H](CC(N)=O)C(=O)N1)C(C)(C)C)C(N)=O [PSM-0255, DOTA-Cmp-Thr-Aib-Mpa-[Cys-Lys-Cit-Aib-Asn-Cys]-Tle-Thr-NH2] ({DOTA}-[X1]T[Aib][3Pal]CK[Cit][Aib]NC[Tle]T-NH2; disulfide 5-10)	> 501 nM	1260 to 3160 nM
C[C@@H](O)[C@H](NC(=O)[C@@H](NC(=O)[C@@H]1CSSC[C@H](NC(=O)[C@H](Cc2ccc(Cl)cc2)NC(=O)[C@@](C)(CO)NC(=O)[C@@H](NC(=O)CC2CCN(C(=O)CN3CCN(CC(=O)O)CCN(CC(=O)O)CCN(CC(=O)O)CC3)CC2)[C@@H](C)O)C(=O)N[C@@H](CCCCN)C(=O)N[C@@H](CCCNC(=N)N)C(=O)NC(C)(C)C(=O)N[C@@H](CC(N)=O)C(=O)N1)C(C)(C)C)C(N)=O [PSM-0256, DOTA-Cmp-Thr-ams-Pcf-[Cys-Lys-Arg-Aib-Asn-Cys]-Tle-Thr-NH2] ({DOTA}-[X1]T[d(αMeS)][Phe(4-Cl)]CKR[Aib]NC[Tle]T-NH2; disulfide 5-10)	< 12.6 nM	< 200 nM
CNCCCC[C@@H]1NC(=O)[C@@H](NC(=O)[C@H](Cc2ccccn2)NC(=O)C(C)(C)NC(=O)[C@@H](NC(=O)CC2CCN(C(=O)CN3CCN(CC(=O)O)CCN(CC(=O)O)CCN(CC(=O)O)CC3)CC2)[C@@H](C)O)CSSC[C@@H](C(=O)N[C@H](C(=O)N[C@H](C(N)=O)[C@@H](C)O)C(C)(C)C)NC(=O)[C@H](CC(N)=O)NC(=O)C(C)(C)NC(=O)[C@H](CCCNC(=N)NC)NC1=O [PSM-0257, DOTA-Cmp-Thr-Aib-Opa-[Cys-Lys(Me)-Arg(Me)-Aib-Asn-Cys]-Tle-Thr-NH2] ({DOTA}-[X1]T[Aib][2Pal]C[Lys(Me)][Arg(Me)][Aib]NC[Tle]T-NH2; disulfide 5-10)	12.6 to 126 nM	200 to 1260 nM
CCCCNC(=O)N[C@H](C(=O)NC(C)(C)C(=O)N[C@@H](Cc1ccccc1)C(=O)N[C@H]1CSSC[C@@H](C(=O)N[C@H](C(=O)N[C@H](C(=O)N2CCC(CC(=O)N[C@H](CCCCNC(=O)CN3CCN(CC(=O)O)CCN(CC(=O)O)CCN(CC(=O)O)CC3)C(N)=O)CC2)[C@@H](C)O)C(C)(C)C)NC(=O)[C@H](CC(N)=O)NC(=O)C(C)(C)NC(=O)[C@H](CCCNc2ccccn2)NC(=O)[C@H](CCCCN)NC1=O)[C@@H](C)O [PSM-0258, nBuCAyl-Thr-Aib-Phe-[Cys-Lys-Opy-Aib-Asn-Cys]-Tle-Thr-Cmp-lys(DOTA)-NH] ({NHBu-CO}-T[Aib]FCK[Orn](Pyridin(2-yl))[Aib]NC[Tle]T[X1][dK](DOTA)-NH2; disulfide 4-9)	126 to 501 nM	200 to 1260 nM
C[C@@H](O)[C@H](NC(=O)[C@@H](NC(=O)[C@@H]1CSSC[C@H](NC(=O)[C@H](Cc2ccccc2)NC(=O)C(C)(C)NC(=O)[C@@H](NC(=O)CCC(=O)NCCCOCCOCCOCCCNC(=O)CN2CCN(CC(=O)O)CCN(CC(=O)O)CCN(CC(=O)O)CC2)[C@@H](C)O)C(=O)N[C@@H](CCCCN)C(=O)N[C@@H](CCCNC(=N)N)C(=O)NC(C)(C)C(=O)N[C@@H](CC(N)=O)C(=O)N1)C(C)(C)C)C(N)=O [PSM-0259, DOTA-Ttds-Thr-Aib-Phe-[Cys-Lys-Arg-Aib-Asn-Cys]-Tle-Thr-NH2] ({X3-Suc}-T[Aib]FCKR[Aib]NC[Tle]T-NH2; disulfide 4-9)	< 12.6 nM	< 200 nM
C[C@@H](O)[C@H](NC(=O)[C@@H](NC(=O)[C@@H]1CSSC[C@H](NC(=O)[C@H](Cc2ccc(Cl)cc2)NC(=O)C(C)(C)NC(=O)[C@@H](NC(=O)CC2CCN(C(=O)CN3CCN(CC(=O)O)CCN(CC(=O)O)CCN(CC(=O)O)CC3)CC2)[C@@H](C)O)C(=O)N[C@@H](CCCCN)C(=O)N[C@@H](CCCNC(=N)N)C(=O)N[C@H](CCC(=O)O)C(=O)N[C@@H](CC(N)=O)C(=O)N1)C(C)(C)C)C(N)=O [PSM-0260, DOTA-Cmp-Thr-Aib-Pcf-[Cys-Lys-Arg-glu-Asn-Cys]-Tle-Thr-NH2] ({DOTA}-[X1]T[Aib][Phe(4-Cl)]CKR[dE]NC[Tle]T-NH2; disulfide 5-10)	< 12.6 nM	< 200 nM
C[C@@H](O)[C@H](NC(=O)[C@@H](NC(=O)[C@@H]1CSSC[C@H](NC(=O)[C@H](Cc2ccccc2)NC(=O)C(C)(C)NC(=O)CN2CCC(NC(=O)CN3CCN(CC(=O)O)CCN(CC(=O)O)CCN(CC(=O)O)CC3)CC2)C(=O)N[C@@H](CCCCN)C(=O)N[C@@H](CCCNC(=N)N)C(=O)NC(C)(C)C(=O)N[C@@H](CC(N)=O)C(=O)N1)C(C)(C)C)C(N)=O [PSM-0261, DOTA-APAc-Aib-Phe-[Cys-Lys-Arg-Aib-Asn-Cys]-Tle-Thr-NH2] ({DOTA}-[X4][Aib]FCKR[Aib]NC[Tle]T-NH2; disulfide 4-9)	12.6 to 126 nM	< 200 nM
